{"source": "patent US20250127937A1", "about": "“FAP INHIBITOR” (UNIVERSITÄT HEIDELBERG, priority 2018, published 2025)", "key": {"[1]": {"biological_target": "human FAP-α (Homo sapiens (Human), UniProt Q12884)", "sequence (Q12884 whole entry)": "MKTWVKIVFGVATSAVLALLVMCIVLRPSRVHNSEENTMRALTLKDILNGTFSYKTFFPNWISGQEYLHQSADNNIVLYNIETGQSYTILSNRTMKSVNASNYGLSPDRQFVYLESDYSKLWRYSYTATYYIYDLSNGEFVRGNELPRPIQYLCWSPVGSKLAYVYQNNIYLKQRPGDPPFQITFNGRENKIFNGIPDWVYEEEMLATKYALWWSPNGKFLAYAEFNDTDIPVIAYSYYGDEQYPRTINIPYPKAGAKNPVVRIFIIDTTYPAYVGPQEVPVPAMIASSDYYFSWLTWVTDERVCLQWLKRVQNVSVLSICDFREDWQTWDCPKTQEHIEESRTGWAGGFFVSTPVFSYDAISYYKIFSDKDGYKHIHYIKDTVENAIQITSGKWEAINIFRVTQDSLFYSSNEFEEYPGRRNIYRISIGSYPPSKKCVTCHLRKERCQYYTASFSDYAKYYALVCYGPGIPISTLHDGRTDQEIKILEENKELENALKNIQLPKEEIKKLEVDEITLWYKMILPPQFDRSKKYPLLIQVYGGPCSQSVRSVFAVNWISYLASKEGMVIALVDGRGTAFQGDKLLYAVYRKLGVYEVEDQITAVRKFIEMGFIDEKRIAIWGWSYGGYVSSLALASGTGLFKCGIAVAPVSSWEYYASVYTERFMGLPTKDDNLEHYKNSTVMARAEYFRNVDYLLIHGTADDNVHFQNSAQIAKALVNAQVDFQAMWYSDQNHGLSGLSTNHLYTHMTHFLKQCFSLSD", "assay": "Competitive binding of radiolabeled compound to HT-1080-FAP cells against unlabeled compound", "settings": "HT-1080-FAP cells; for IC50: Lu-177-labeled compound, unlabeled compound as competitor, read-out: IC50", "method": "Competition experiments were performed by simultaneous exposure to unlabeled (10^−5 M to 10^−9M) and radiolabeled compound for 60 min. […] For internalization experiments, surface bound activity was removed by incubating the cells with 1 M glycine-HCl buffer for 10 min. The radioactivity was measured using a γ-counter, normalized to 1 mio cells and calculated as percentage of applied dose (% ID).\nThe medium was replaced by 1 mL fresh medium without fetal calf serum. […] Competition experiments were performed by simultaneous exposure to unlabeled (10^−5 M to 10^−9 M) and radiolabeled compound for 60 min. […] In all experiments, the cells were washed with 1 mL phosphate-buffered saline pH 7.4 for 2 times and subsequently lysed with 1.4 ml lysis buffer (0.3 M NaOH, 0.2% SDS). Radioactivity was determined in a γ-counter (Cobra II, Packard), normalized to 1 mio cells and calculated as percentage of the applied dose (% ID). Each experiment was performed 3 times, and 3 repetitions per independent experiment were acquired."}, "[2]": {"system": "HT-1080-FAP tumor xenografts", "assay": "Organ distribution ex vivo in HT-1080-FAP tumor bearing nude mice", "set-up": "species or system mouse", "settings": "for Tumor uptake 1 h / Tumor uptake 4 h / Tumor uptake 24 h: HT-1080-FAP tumor bearing nude mice, mean ± SD, n = 3", "method": "For in vivo experiments, 8 week old BALB/c nu/nu mice (Charles River) were subcutaneously inoculated into the right trunk with 5×10^6 with HT-1080-FAP, Capan-2 or SK-LMS-1 cells, respectively. When the size of the tumor reached approximately 1 cm^3, the radiolabeled compound was injected via the tail vein (˜10 MBq for small-animal PET imaging; ˜1 MBq for organ distribution). PET imaging was performed up to 140 min after intravenous injection of 1 MBq of Ga-68 labeled compound per mouse using the Inveon PET small-animal PET scanner (Siemens). Images were reconstructed iteratively using the 3D-OSEM+MAP method and were converted to standardized uptake value (SUV) images. Quantification was done using a ROI technique and expressed as SUV mean. For organ distribution of Lu-177 labeled compound (approx. […] per mouse), the animals (n=3 for each time point) were sacrificed after indicated time points (from 30 min to 24 h). The distributed radioactivity was measured in all dissected organs and in blood using a γ-counter (Cobra Autogamma, Packard). The values are expressed as percentage of injected dose per gram of tissue (% ID/g)."}, "[3]": {"assay": "Blood pool clearance from SUVmean of the heart", "assay_type": "in vivo", "settings": "for Plateau value (SUVmean): hypothetical plateau, two phase exponential decay of heart SUVmean; for Blood pool-clearence (T1/2 [min]): rate determining half-life, two phase exponential decay of heart SUVmean 0.375-60 min", "text": "The calculated plateau values, which were higher for Ga-68 labeled FAPI-13, -21, -36 and AlF-18 labeled FAPI-74 theoretically correspond to a higher fraction of compound which is not cleared due to unspecific binding or by remaining in circulating (Table 12)."}}}
{"smiles": "N#C[C@@H]1CC(F)(F)CN1C(=O)CNC(=O)c1ccnc2ccc(NCCCN3CCN(C(=O)CN4CCN(CC(=O)O)CCN(CC(=O)O)CCN(CC(=O)O)CC4)CC3)cc12", "note": "[FAPI-41]", "values": [{"measurement": "IC50", "setting": "[1]", "value": 8.3, "unit": "nM"}]}
{"smiles": "N#C[C@@H]1CC(F)(F)CN1C(=O)CNC(=O)c1ccnc2ccc(CCCCN3CCN(C(=O)CN4CCN(CC(=O)O)CCN(CC(=O)O)CCN(CC(=O)O)CC4)CC3)cc12", "note": "[FAPI-39]", "values": [{"measurement": "IC50", "setting": "[1]", "value": 11.3, "unit": "nM"}]}
{"smiles": "N#C[C@@H]1CC(F)(F)CN1C(=O)CNC(=O)c1ccnc2ccc(OCCCCN3CCN(C(=O)CN4CCN(CC(=O)O)CCN(CC(=O)O)CCN(CC(=O)O)CC4)CC3)cc12", "note": "[FAPI-05]", "values": [{"measurement": "IC50", "setting": "[1]", "value": 17.2, "unit": "nM"}, {"measurement": "Tumor uptake 1 h", "setting": "[2]", "value": "6.0 ± 0.90", "unit": "% ID/g"}, {"measurement": "Tumor uptake 4 h", "setting": "[2]", "value": "5.8 ± 0.60", "unit": "% ID/g"}, {"measurement": "Tumor uptake 24 h", "setting": "[2]", "value": "2.8 ± 0.40", "unit": "% ID/g"}]}
{"smiles": "N#C[C@@H]1CC(F)(F)CN1C(=O)CNC(=O)c1ccnc2ccc(OCCOCCOCCN3CCN(C(=O)CN4CCN(CC(=O)O)CCN(CC(=O)O)CCN(CC(=O)O)CC4)CC3)cc12", "note": "[FAPI-15]", "values": [{"measurement": "IC50", "setting": "[1]", "value": 9.1, "unit": "nM"}, {"measurement": "Tumor uptake 1 h", "setting": "[2]", "value": "3.4 ± 1.13", "unit": "% ID/g"}, {"measurement": "Tumor uptake 4 h", "setting": "[2]", "value": "4.6 ± 0.32", "unit": "% ID/g"}, {"measurement": "Tumor uptake 24 h", "setting": "[2]", "value": "1.1 ± 0.25", "unit": "% ID/g"}]}
{"smiles": "N#C[C@@H]1CC(F)(F)CN1C(=O)CNC(=O)c1ccnc2ccc(SCCCN3CCN(C(=O)CN4CCN(CC(=O)O)CCN(CC(=O)O)CCN(CC(=O)O)CC4)CC3)cc12", "note": "[FAPI-40]", "values": [{"measurement": "IC50", "setting": "[1]", "value": 12.7, "unit": "nM"}]}
{"smiles": "CN(CCCN1CCN(C(=O)CN2CCN(CC(=O)O)CCN(CC(=O)O)CC2)CC1)c1ccc2nccc(C(=O)NCC(=O)N3CC(F)(F)C[C@H]3C#N)c2c1", "note": "[FAPI-52]", "values": [{"measurement": "IC50-values", "setting": "[1]; Cu-64 labeled", "value": "lower nanomolar range"}]}
{"smiles": "CN(CCCN1CCN(C(=O)CN2CCN(CC(=O)O)CCN(CC(=O)O)CCN(CC(=O)O)CC2)CC1)c1ccc2nccc(C(=O)NCC(=O)N3CC(F)(F)C[C@H]3C#N)c2c1", "note": "[FAPI-46]", "values": [{"measurement": "Plateau value (SUVmean)", "setting": "[3]", "value": 0.19}, {"measurement": "Blood pool-clearence (T1/2 [min])", "setting": "[3]", "value": 5.3, "unit": "min"}, {"measurement": "IC50", "setting": "[1]", "value": 13.5, "unit": "nM"}, {"measurement": "tumor-blood-ratios", "setting": "[2]; Lu labeled, 1, 4 and 24 h, compared with FAPI-04", "value": "significantly higher ratios than FAPI-04"}]}
{"smiles": "N#C[C@@H]1CC(F)(F)CN1C(=O)CNC(=O)c1ccnc2ccc(OCCCC3CCN(C(=O)CN4CCN(CC(=O)O)CCN(CC(=O)O)CCN(CC(=O)O)CC4)CC3)cc12", "note": "[FAPI-13]", "values": [{"measurement": "Plateau value (SUVmean)", "setting": "[3]", "value": 0.27}, {"measurement": "Blood pool-clearence (T1/2 [min])", "setting": "[3]", "value": 5.5, "unit": "min"}, {"measurement": "IC50", "setting": "[1]", "value": 4.5, "unit": "nM"}, {"measurement": "Tumor uptake 1 h", "setting": "[2]", "value": "6.3 ± 0.57", "unit": "% ID/g"}, {"measurement": "Tumor uptake 4 h", "setting": "[2]", "value": "8.7 ± 0.77", "unit": "% ID/g"}, {"measurement": "Tumor uptake 24 h", "setting": "[2]", "value": "4.8 ± 1.71", "unit": "% ID/g"}]}
{"smiles": "N#C[C@@H]1CC(F)(F)CN1C(=O)CNC(=O)c1ccnc2ccc(OCCCN3CCN(CCN4CCN(CC(=O)O)CCN(CC(=O)O)CCN(CC(=O)O)CC4)CC3)cc12", "note": "[FAPI-47]", "values": [{"measurement": "IC50", "setting": "[1]", "value": 42, "unit": "nM"}]}
{"smiles": "N#C[C@@H]1CC(F)(F)CN1C(=O)CNC(=O)c1ccnc2ccc(OCCCN3CCN(CCCN4CCN(CC(=O)O)CCN(CC(=O)O)CCN(CC(=O)O)CC4)CC3)cc12", "note": "[FAPI-48]", "values": [{"measurement": "IC50", "setting": "[1]", "value": 26.3, "unit": "nM"}]}
{"smiles": "N#C[C@@H]1CC(F)(F)CN1C(=O)CNC(=O)c1ccnc2ccc(OCCCN3C[C@@H]4C[C@H]3CN4C(=O)CN3CCN(CC(=O)O)CCN(CC(=O)O)CCN(CC(=O)O)CC3)cc12", "note": "[FAPI-20]", "values": [{"measurement": "IC50", "setting": "[1]", "value": 7.2, "unit": "nM"}]}
